pKi: −log10 of the molar value.
Key:
[1] = target: Prothrombin (Homo sapiens, UniProt P00734); experiment: Inhibition of thrombin
[2] = Inhibition of trypsin
[3] = target: Coagulation factor X (Homo sapiens, UniProt P00742); experiment: Inhibition of factor 10a
[4] = Selectivity for trypsin over thrombin
[5] = Selectivity for factor 10a over thrombin

Sequence of Coagulation factor X (P00742 41-179 limits assumed): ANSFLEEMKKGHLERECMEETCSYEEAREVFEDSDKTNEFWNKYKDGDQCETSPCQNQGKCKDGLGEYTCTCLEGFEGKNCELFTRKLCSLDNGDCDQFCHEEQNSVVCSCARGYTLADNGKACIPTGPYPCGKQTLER
Sequence of Coagulation factor X (P00742 235-488 limits assumed): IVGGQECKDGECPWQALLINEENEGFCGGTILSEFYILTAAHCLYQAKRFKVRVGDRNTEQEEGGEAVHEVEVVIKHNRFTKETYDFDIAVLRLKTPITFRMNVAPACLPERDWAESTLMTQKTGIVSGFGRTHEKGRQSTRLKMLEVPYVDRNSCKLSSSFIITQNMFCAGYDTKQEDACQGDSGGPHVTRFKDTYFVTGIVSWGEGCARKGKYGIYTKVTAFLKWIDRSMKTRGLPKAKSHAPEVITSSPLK

Compound | pKi [1] | pKi [2] | pKi [3] | Ratio Ki [4] | Ratio Ki [5]
CN1C(=O)C(Cc2ccc(C(=N)N)cc2)Oc2cc(NC(=O)C(Cc3ccccc3)C(=O)O)ccc21 (stereo not given) | 5.53 | 5.29 | 4.48 | 1.7 | 11
CN1C(=O)C(Cc2ccc(C(=N)N)cc2)Oc2cc(N(Cc3ccccc3)C(=O)CC(=O)O)ccc21 (stereo not given) | 8.59 | 3.53 | 3.86 | 112000 | 52500
CCOC(=O)CCC(=O)N(Cc1ccccc1)c1ccc2c(c1)OC(Cc1ccc(C(=N)N)cc1)C(=O)N2C (stereo not given) | 8.24 | 5.51 | 5.98 | 535 | 181
CN1C(=O)C(Cc2ccc(C(=N)N)cc2)Oc2cc(N(Cc3ccccc3)C(=O)CCC(=O)O)ccc21 (stereo not given) | 8.19 | 5.13 | 4.80 | 1130 | 2430

The remaining lines, values ahead:

pKi [1] | pKi [2] | pKi [3] | Ratio Ki [4] | Ratio Ki [5] | Compound
8.44 | 5.37 | 5.71 | 1190 | 537 | CCOC(=O)C(=O)N(Cc1ccccc1)c1ccc2c(c1)OC(Cc1ccc(C(=N)N)cc1)C(=O)N2C (stereo not given)
5.56 | 4.95 | 4.23 | 4.1 | 22 | COC(=O)C(Cc1ccccc1)C(=O)Nc1ccc2c(c1)OC(Cc1ccc(C(=N)N)cc1)C(=O)N2C (stereo not given)
8.47 | 5.42 | 5.24 | 1130 | 1690 | COC(=O)CC(=O)N(Cc1ccccc1)c1ccc2c(c1)OC(Cc1ccc(C(=N)N)cc1)C(=O)N2C (stereo not given)
7.96 | 5.00 | 5.03 | 910 | 835 | CN1C(=O)C(Cc2ccc(C(=N)N)cc2)Oc2cc(N(Cc3ccccc3)C(=O)C(=O)O)ccc21 (stereo not given)

— ChEMBL document CHEMBL1150268, “Novel potent and selective thrombin inhibitors based on a central 1,4-benzoxazin-3(4H)-one scaffold” (J Med Chem, 2008)
